Laboratory results as given in ChEMBL document CHEMBL6074677, “Development of dual V1a/V2 antagonists containing triazolobenzazepine scaffold” (Eur J Med Chem, 2025).

What was measured:
[1] = Metabolic stability in mouse liver microsomes assessed as intrinsic clearance at 1 uM in presence of NADPH; assay type: ADME, Microsome; settings: read-out: CLH
Vasopressin V2 receptor = Vasopressin V2 receptor (Homo sapiens, UniProt P30518); assay: Displacement of [3H]AVP from human vasopressin V2 receptor expressed in human 1321N1 cells assessed as inhibition constant; assay type: cell-based
Sequence of Vasopressin V2 receptor (P30518 whole entry): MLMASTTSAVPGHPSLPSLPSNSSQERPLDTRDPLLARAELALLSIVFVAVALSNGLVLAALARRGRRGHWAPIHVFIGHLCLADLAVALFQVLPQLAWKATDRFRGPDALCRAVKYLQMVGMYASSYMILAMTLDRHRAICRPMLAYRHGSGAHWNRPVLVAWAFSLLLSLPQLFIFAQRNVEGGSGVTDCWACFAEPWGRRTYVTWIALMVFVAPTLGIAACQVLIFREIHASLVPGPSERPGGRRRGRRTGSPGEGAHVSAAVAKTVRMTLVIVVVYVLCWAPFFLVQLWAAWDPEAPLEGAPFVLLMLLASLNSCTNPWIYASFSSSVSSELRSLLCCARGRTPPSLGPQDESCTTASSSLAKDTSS

Vasopressin V1a receptor [2] = biological target: T1, Vasopressin V1a receptor (Homo sapiens, UniProt P37288); assay: Displacement of [3H]AVP from human vasopressin V1a receptor expressed in human 1321N1 cells assessed as inhibition constant; assay type: cell-based
T1 sequence (P37288 whole entry): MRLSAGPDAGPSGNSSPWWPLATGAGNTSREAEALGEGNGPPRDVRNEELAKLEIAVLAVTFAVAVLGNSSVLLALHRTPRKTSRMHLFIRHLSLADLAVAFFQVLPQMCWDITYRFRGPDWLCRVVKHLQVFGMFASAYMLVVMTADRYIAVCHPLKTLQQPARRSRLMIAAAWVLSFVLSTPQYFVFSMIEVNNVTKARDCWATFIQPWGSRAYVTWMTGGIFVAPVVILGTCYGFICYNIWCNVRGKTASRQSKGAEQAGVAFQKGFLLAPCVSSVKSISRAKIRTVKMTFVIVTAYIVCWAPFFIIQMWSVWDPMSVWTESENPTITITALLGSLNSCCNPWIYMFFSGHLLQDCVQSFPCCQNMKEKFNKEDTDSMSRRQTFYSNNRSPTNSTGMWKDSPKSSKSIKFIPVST

[3] = Metabolic stability in human liver microsomes assessed as intrinsic clearance at 1 uM in presence of NADPH; assay type: ADME, Microsome; settings: read-out: CLH
[4] = Metabolic stability in rat liver microsomes assessed as intrinsic clearance at 1 uM in presence of NADPH; assay type: ADME, Microsome; settings: read-out: CLH
[5] = biological target: Voltage-gated inwardly rectifying potassium channel KCNH2 (Homo sapiens, UniProt Q12809); assay: Inhibition of human ERG expressed in CHO cells at -80 mV holding potential measured for 7 to 10 mins by automated patch clamp method; assay type: toxicity, cell-based
Sequence of Voltage-gated inwardly rectifying potassium channel KCNH2 (Q12809 whole entry): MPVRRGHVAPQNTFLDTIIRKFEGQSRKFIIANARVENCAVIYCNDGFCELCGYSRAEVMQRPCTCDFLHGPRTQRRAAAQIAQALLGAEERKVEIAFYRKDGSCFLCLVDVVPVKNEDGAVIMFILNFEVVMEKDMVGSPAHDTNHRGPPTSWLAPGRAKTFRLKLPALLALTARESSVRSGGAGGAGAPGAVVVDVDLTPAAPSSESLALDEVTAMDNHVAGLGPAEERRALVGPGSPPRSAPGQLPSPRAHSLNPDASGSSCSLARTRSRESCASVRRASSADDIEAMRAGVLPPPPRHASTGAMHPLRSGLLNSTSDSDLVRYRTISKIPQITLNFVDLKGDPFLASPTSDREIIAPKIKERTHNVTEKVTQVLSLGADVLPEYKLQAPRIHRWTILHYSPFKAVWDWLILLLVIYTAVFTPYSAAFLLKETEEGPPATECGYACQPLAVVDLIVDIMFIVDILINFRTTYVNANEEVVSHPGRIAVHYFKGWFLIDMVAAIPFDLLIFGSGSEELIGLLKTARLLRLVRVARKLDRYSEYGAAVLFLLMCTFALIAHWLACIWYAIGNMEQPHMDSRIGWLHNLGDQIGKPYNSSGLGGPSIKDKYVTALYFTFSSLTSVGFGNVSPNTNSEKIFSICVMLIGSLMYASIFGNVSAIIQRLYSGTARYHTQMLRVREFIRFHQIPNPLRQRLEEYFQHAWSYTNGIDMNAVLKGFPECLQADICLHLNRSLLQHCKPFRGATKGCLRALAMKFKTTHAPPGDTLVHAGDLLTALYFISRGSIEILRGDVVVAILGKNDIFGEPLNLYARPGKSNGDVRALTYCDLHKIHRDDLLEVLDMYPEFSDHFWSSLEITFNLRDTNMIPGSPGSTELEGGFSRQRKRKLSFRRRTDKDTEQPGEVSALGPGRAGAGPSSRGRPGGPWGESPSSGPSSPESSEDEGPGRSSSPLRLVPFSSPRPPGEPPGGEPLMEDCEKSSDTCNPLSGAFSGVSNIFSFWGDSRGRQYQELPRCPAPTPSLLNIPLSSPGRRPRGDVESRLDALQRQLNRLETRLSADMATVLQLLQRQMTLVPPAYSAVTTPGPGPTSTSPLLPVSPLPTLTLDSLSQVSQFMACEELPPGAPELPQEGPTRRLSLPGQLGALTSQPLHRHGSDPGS

[6] = Apparent permeability across apical to basolateral side in vinblastine treated human Caco-2 cells incubated for 15 to 60 mins by HPLC analysis; assay type: ADME, cell-based; settings: time 15-60 min
[7] = biological target: Vasopressin V1a receptor (Mus musculus) (UniProt Q62463); assay: In vivo antagonist activity at vasopressin V1a receptor in male NMRI mouse assessed as inhibition of oxytocin-induced scratching behavior at 3 mg/kg, po pretreated with compound for 60 mins followed by oxytocin administration and measured after 1 hrs relative to control; assay type: functional, organism-based; settings: time 120.0 min
Sequence of Vasopressin V1a receptor (Mus musculus) (Q62463 whole entry, looked up): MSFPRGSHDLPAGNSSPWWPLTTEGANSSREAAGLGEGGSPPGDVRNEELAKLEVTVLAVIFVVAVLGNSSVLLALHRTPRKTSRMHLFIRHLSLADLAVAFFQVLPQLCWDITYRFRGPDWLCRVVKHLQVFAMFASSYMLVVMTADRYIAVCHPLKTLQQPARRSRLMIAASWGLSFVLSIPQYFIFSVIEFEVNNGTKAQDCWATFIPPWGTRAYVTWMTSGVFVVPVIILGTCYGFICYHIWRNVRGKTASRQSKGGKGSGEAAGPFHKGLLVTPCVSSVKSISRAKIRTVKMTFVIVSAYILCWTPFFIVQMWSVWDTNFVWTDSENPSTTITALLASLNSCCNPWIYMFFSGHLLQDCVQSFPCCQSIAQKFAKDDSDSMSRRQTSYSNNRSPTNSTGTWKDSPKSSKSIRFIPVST

[8] = biological target: Vasopressin V1a receptor (Mus musculus) (UniProt Q62463); assay: In vivo antagonist activity at vasopressin V1a receptor in male NMRI mouse assessed as inhibition of oxytocin-induced scratching behavior at 0.1 mg/kg, po pretreated with compound for 60 mins followed by oxytocin administration and measured after 1 hrs relative to control; assay type: functional, organism-based; settings: time 120.0 min
[9] = biological target: Vasopressin V1a receptor (Mus musculus) (UniProt Q62463); assay: In vivo antagonist activity at vasopressin V1a receptor in male NMRI mouse assessed as inhibition of oxytocin-induced scratching behavior at 0.3 mg/kg, po pretreated with compound for 60 mins followed by oxytocin administration and measured after 1 hrs relative to control; assay type: functional, organism-based; settings: time 120.0 min
Vasopressin V1a receptor [10] = biological target: T1, Vasopressin V1a receptor; assay: Displacement of [3H]AVP from human vasopressin V1a receptor expressed in human 1321N1 cells; assay type: cell-based
Vasopressin V1a receptor [11] = biological target: Vasopressin V1a receptor (Mus musculus, UniProt Q62463); assay: Displacement of [3H]AVP from mouse vasopressin V1a receptor expressed in human 1321N1 cells assessed as inhibition constant; assay type: cell-based
Sequence of Vasopressin V1a receptor (Mus musculus, UniProt Q62463) (Q62463 whole entry): as the sequence (Q62463 whole entry, looked up) above

[12] = biological target: Vasopressin V1a receptor (Mus musculus) (UniProt Q62463); assay: In vivo antagonist activity at vasopressin V1a receptor in male NMRI mouse assessed as inhibition of oxytocin-induced scratching behavior at 1 mg/kg, po pretreated with compound for 60 mins followed by oxytocin administration and measured after 1 hrs relative to control; assay type: functional, organism-based; settings: time 120.0 min

| SMILES | microsomal CLint at 1 µM [1] [µL/min/mg] | Ki (Vasopressin V2 receptor) [nM] | Ki (Vasopressin V1a receptor [2]) [nM] | microsomal CLint at 1 µM [3] [µL/min/mg] | microsomal CLint at 1 µM [4] [µL/min/mg] | Papp A→B [6] [×10⁻⁶ cm/s] | inhibition [7] [%] | inhibition [8] [%] | inhibition [9] [%] | IC50 (Vasopressin V1a receptor [10]) [nM] | Ki (Vasopressin V1a receptor [11]) [nM] | inhibition [12] [%] | IC50 [5] [µM] |
| --- | --- | --- | --- | --- | --- | --- | --- | --- | --- | --- | --- | --- | --- |
| Clc1ccc2c(c1)CC1(CCCO1)Cc1nnc(N3CCN(c4cccc5c4OCC5)CC3)n1-2 (stereo not given) |  | 5.1 | 1.4 |  |  |  |  |  |  |  |  |  |  |
| Clc1ccc2c(c1)CC1(Cc3nnc(N4CCN(c5nccc6ccsc56)CC4)n3-2)OCCO1 | 83.3 | 6.5 | 0.14 | 24.3 | 141 |  |  |  |  |  |  |  |  |
| NC(=O)C1Cc2cc(Cl)ccc2-n2c(nnc2N2CCC3(CC2)OCc2ccccc23)C1 (stereo not given) |  | 327 | 2.1 |  |  |  |  |  |  |  |  |  |  |
| NC(=O)C1Cc2cc(Cl)ccc2-n2c(nnc2N2CCC(Oc3ccccn3)CC2)C1 (stereo not given) | 6.2 | 3620 | 1.4 | 0.5 | 7.6 |  |  |  |  |  |  |  |  |
| Clc1ccc2c(c1)CC1(Cc3nnc(N4CCC(c5cccc6c5OCO6)CC4)n3-2)OCCO1 |  | 0.9 | 0.2 |  |  |  |  |  |  |  |  |  |  |
| Clc1ccc2c(c1)CC1(Cc3nnc(N4CCN(c5cccc6c5OCO6)CC4)n3-2)OCCO1 | 25.1 | 0.8 | 0.25 | 8.8 | 31.7 | 31 |  |  |  |  |  |  | 11 |
| Clc1ccc2c(c1)CC1(Cc3nnc(N4CCN(c5cccc6c5OCC6)CC4)n3-2)OCCO1 | 27.1 | 0.53 | 0.13 | 15.9 | 36.9 | 30 | 86 | 81 | 85 | 2.2 | 0.5 | 91 | > 30 |
| Clc1ccc2c(c1)CC1(Cc3nnc(N4CCC(N5CCCCC5)CC4)n3-2)OCCO1 | 1.15 | 998 | 2.04 | 0.2 | 1.15 | 2.4 |  |  |  |  |  |  |  |
| COC1(c2ccccc2)CCN(c2nnc3n2-c2ccc(Cl)cc2CC(C(N)=O)C3)CC1 (stereo not given) | 13.9 | 1610 | 1.3 | 3 | 7.1 |  |  |  |  |  |  |  |  |
| CC1(C)Cc2cccc(N3CCN(c4nnc5n4-c4ccc(Cl)cc4CC4(C5)OCCO4)CC3)c2O1 | 99.5 | 24 | 0.82 | 107 | 113 |  |  |  |  |  |  |  |  |
| Clc1ccc2c(c1)CC1(Cc3nnc(N4CCN(c5nccc6ccoc56)CC4)n3-2)OCCO1 | 44.6 | 21 | 0.28 | 18 | 110 |  |  |  |  |  |  |  |  |
| Clc1ccc2c(c1)CC1(Cc3nnc(N4CCN(c5cccc6c5COC6)CC4)n3-2)OCCO1 | 30.5 | 2.8 | 0.5 | 17 | 29.4 |  |  |  |  |  |  |  | 7.9 |
| Clc1ccc2c(c1)CC1(Cc3nnc(N4CCN(c5cccc6c5CCO6)CC4)n3-2)OCCO1 | 21.8 | 2.2 | 0.38 | 11.5 | 28.2 | 30 |  |  |  |  |  |  | 10 |
| Cc1cccc(N2CCN(c3nnc4n3-c3ccc(Cl)cc3CC3(C4)OCCO3)CC2)c1C | 23.3 | 0.7 | 0.5 | 5.8 | 28 |  | 104 |  | 69 | 5.7 | 0.4 | 83 | 10 |
| NC(=O)C1Cc2cc(Cl)ccc2-n2c(nnc2N2CCC(N3CCCCC3)CC2)C1 (stereo not given) | 0.2 |  | 98 | 0.2 | 0.2 |  |  |  |  |  |  |  |  |
| Cc1ccccc1C(=O)Nc1ccc(C(=O)N2CCCC(O)c3cc(Cl)ccc32)c(C)c1 (stereo not given) [TOLVAPTAN] | 32 |  |  | 12 | 168 | 46.7 |  |  |  |  |  |  |  |
| NC(=O)C1Cc2cc(Cl)ccc2-n2c(nnc2N2CCN(c3cccc(Cl)c3)CC2)C1 (stereo not given) | 9.2 | 259 | 7.7 | 3.7 | 7 |  |  |  |  |  |  |  |  |
| Clc1ccc2c(c1)CC1(Cc3nnc(N4CCC5(CC4)OCc4ccccc45)n3-2)OCCO1 | 194 | 1.6 |  | 12 | 166 |  |  |  |  |  |  |  |  |
| Cc1cccc(N2CCN(c3nnc4n3-c3ccc(Cl)cc3CC(C(N)=O)C4)CC2)c1C (stereo not given) | 9.1 | 13 | 0.65 | 5.1 | 14.5 |  |  |  |  |  |  |  |  |
| Clc1ccc2c(c1)CC1(CCOCC1)Cc1nnc(N3CCN(c4cccc5c4OCC5)CC3)n1-2 | 70.7 | 1.1 | 0.41 | 78.3 | 48.2 |  |  |  |  |  |  |  |  |
| O=C1c2ccccc2CCN1C1CCN(c2nnc3n2-c2ccc(Cl)cc2CC2(C3)OCCO2)CC1 |  | 13 | 0.25 |  |  |  |  |  |  |  |  |  |  |
| OC1Cc2cc(Cl)ccc2-n2c(nnc2N2CCN(c3cccc4c3OCC4)CC2)C1 (stereo not given) | 14.3 | 11 | 1.4 | 13.5 | 26.2 |  |  |  |  |  |  |  |  |
| Cc1nc2c([nH]1)-c1ccccc1N(C(=O)c1ccc(NC(=O)c3ccccc3-c3ccccc3)cc1)CC2 [CONIVAPTAN] |  |  |  |  |  | 2.9 |  |  |  |  |  |  | > 5 |
| Clc1ccc2c(c1)CC1(Cc3nnc(N4CCC(c5cccc6c5OCC6)CC4)n3-2)OCCO1 |  | 0.7 | 0.2 |  |  |  |  |  |  |  |  |  |  |

Further lines, with some results ahead:

| microsomal CLint at 1 µM [1] [µL/min/mg] | Ki (Vasopressin V2 receptor) [nM] | Ki (Vasopressin V1a receptor [2]) [nM] | microsomal CLint at 1 µM [3] [µL/min/mg] | microsomal CLint at 1 µM [4] [µL/min/mg] | Papp A→B [6] [×10⁻⁶ cm/s] | inhibition [7] [%] | inhibition [8] [%] | inhibition [9] [%] | IC50 (Vasopressin V1a receptor [10]) [nM] | Ki (Vasopressin V1a receptor [11]) [nM] | inhibition [12] [%] | SMILES | IC50 [5] [µM] |
| --- | --- | --- | --- | --- | --- | --- | --- | --- | --- | --- | --- | --- | --- |
| 58.5 | 1.2 | 0.26 | 10.6 | 51 |  |  |  |  |  |  |  | Clc1ccc2c(c1)CC1(Cc3nnc(N4CCN(c5ncccc5Cl)CC4)n3-2)OCCO1 |  |
| 51.7 | 11 | 0.17 | 6.9 | 62.2 | 34 |  |  |  |  |  |  | COC1(c2ccccc2)CCN(c2nnc3n2-c2ccc(Cl)cc2CC2(C3)OCCO2)CC1 | 11 |
| 28.4 | 20 |  | 10.9 | 33.3 | 40.4 |  |  |  |  |  |  | Clc1ccc2c(c1)CC1(Cc3nnc(N4CCC(Oc5ccccn5)CC4)n3-2)OCCO1 | 8.2 |
|  | 9 | 0.35 |  |  |  |  |  |  |  |  |  | Cc1ccccc1C(=O)NC1CCN(c2nnc3n2-c2ccc(Cl)cc2CC2(C3)OCCO2)CC1 |  |
|  | 4 | 0.2 |  |  |  |  |  |  |  |  |  | Clc1ccc2c(c1)CC1(Cc3nnc(C4CCN(c5cccc6c5OCC6)CC4)n3-2)OCCO1 |  |
| 25 |  |  | 13 | 28 | 59.3 | 80 |  | 42 |  |  | 86 | Clc1ccc2c(c1)CC1(Cc3nnc([C@H]4CC[C@H](Oc5ccccn5)CC4)n3-2)OCCO1 | 9.1 |
|  | 2 | 0.4 |  |  |  |  |  |  |  |  |  | COc1ccccc1N1CCN(c2nnc3n2-c2ccc(Cl)cc2CC2(C3)OCCO2)CC1 |  |
|  | 26 | 0.3 |  |  |  |  |  |  |  |  |  | Clc1ccc2c(c1)CC1(Cc3nnc(C4CCN(c5cccc6c5CCO6)CC4)n3-2)OCCO1 |  |
|  | 26 | 0.21 |  |  |  |  |  |  |  |  |  | Clc1ccc2c(c1)CC1(Cc3nnc(C4CCN(c5cccc6c5COC6)CC4)n3-2)OCCO1 |  |
| 21.7 | 4.7 |  | 9.1 | 25.4 | 39.9 |  |  |  |  |  |  | Clc1ccc2c(c1)CC1(Cc3nnc(N4CCN(c5ccccn5)CC4)n3-2)OCCO1 |  |
